The numbers were not newly measured in US6743775B2, “Slow release formulations comprising anionic polysaccharide” (Alpenstock Holdings Limited, priority 1998, dated 2004), which cites them from elsewhere.

For this data set the following is noted: gelatine alone; Schwartz et al., Principles of Surgery 1979.

Turning to gelatine, the haemostatic effect entry is “only displays a haemostatic effect after an addition of thrombin”.
